#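 1) Cells in 96-well plates. 2) Compound, 48 h, 5 concentrations. 3) Linear interpolation between surrounding doses. 4) Unreached endpoint = highest concentration. TGI denotes the concentration required for complete inhibition of growth.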
# Experiments:
# Test in all cases: NCI tumour cell line growth inhibition, 48 h
# SF-539 CNS = system: SF-539 CNS
# HCT-116 colon = system: HCT-116 colon
# CAKI-1 renal = system: CAKI-1 renal
# NCI-H522 lung = system: NCI-H522 lung
# K-562 leukemia = system: K-562 leukemia
# UACC-62 melanoma = system: UACC-62 melanoma
# SK-MEL-5 melanoma = system: SK-MEL-5 melanoma
# HS 578T breast = system: HS 578T breast
# SK-OV-3 ovarian = system: SK-OV-3 ovarian
# NCI-H226 lung = system: NCI-H226 lung
# SN12C renal = system: SN12C renal
# NCI-H23 lung = system: NCI-H23 lung
# TK-10 renal = system: TK-10 renal
# MDA-MB-435 = system: MDA-MB-435
# RPMI-8226 leukemia = system: RPMI-8226 leukemia
# MOLT-4 leukemia = system: MOLT-4 leukemia
# OVCAR-5 ovarian = system: OVCAR-5 ovarian
# NCI-H460 lung = system: NCI-H460 lung
# OVCAR-8 ovarian = system: OVCAR-8 ovarian
# HCC-2998 colon = system: HCC-2998 colon
# A498 renal = system: A498 renal
# NCI/ADR-RES ovarian = system: NCI/ADR-RES ovarian
# HOP-62 NSCLC = system: HOP-62 NSCLC
# CCRF-CEM leukemia = system: CCRF-CEM leukemia
# 786-0 renal = system: 786-0 renal
# DU-145 prostate = system: DU-145 prostate
# SW-620 colon = system: SW-620 colon
# COLO 205 colon = system: COLO 205 colon
# RXF 393 renal = system: RXF 393 renal
# HOP-92 NSCLC = system: HOP-92 NSCLC
# A549 NSCLC = system: A549 NSCLC
# SR leukemia = system: SR leukemia
# SF-268 CNS = system: SF-268 CNS
# KM12 colon = system: KM12 colon
# T-47D breast = system: T-47D breast
# HT29 colon = system: HT29 colon
# MCF7 breast = system: MCF7 breast
# EKVX NSCLC = system: EKVX NSCLC
# UO-31 renal = system: UO-31 renal
# UACC-257 melanoma = system: UACC-257 melanoma
# OVCAR-3 ovarian = system: OVCAR-3 ovarian
# ACHN renal = system: ACHN renal
# SNB-75 CNS = system: SNB-75 CNS
# SF-295 CNS = system: SF-295 CNS
# HCT-15 colon = system: HCT-15 colon
# MDA-N = system: MDA-N
# M14 melanoma = system: M14 melanoma
# SK-MEL-2 melanoma = system: SK-MEL-2 melanoma
# SK-MEL-28 melanoma = system: SK-MEL-28 melanoma
# PC-3 prostate = system: PC-3 prostate
# IGROV1 ovarian = system: IGROV1 ovarian
# HL-60(TB) leukemia = system: HL-60(TB) leukemia
# LOX IMVI melanoma = system: LOX IMVI melanoma
# SNB-19 CNS = system: SNB-19 CNS
# U251 CNS = system: U251 CNS
# OVCAR-4 ovarian = system: OVCAR-4 ovarian
# MALME-3M melanoma = system: MALME-3M melanoma
# MDA-MB-231 breast = system: MDA-MB-231 breast
smiles,measurement,setting,value
CC(C)(C)OC(=O)N1NC(c2ccccc2)CC1c1ccccc1 (centres undefined),TGI,SF-539 CNS,> 100 µM
same,TGI,HCT-116 colon,> 100 µM
same,TGI,CAKI-1 renal,> 100 µM
same,TGI,NCI-H522 lung,> 100 µM
same,TGI,K-562 leukemia,> 100 µM
same,TGI,UACC-62 melanoma,88.1 µM
same,TGI,SK-MEL-5 melanoma,45.5 µM
same,TGI,HS 578T breast,> 100 µM
same,TGI,SK-OV-3 ovarian,> 100 µM
same,TGI,NCI-H226 lung,88.2 µM
same,TGI,SN12C renal,> 100 µM
same,TGI,NCI-H23 lung,40.4 µM
same,TGI,TK-10 renal,> 100 µM
same,TGI,MDA-MB-435,65.3 µM
same,TGI,RPMI-8226 leukemia,> 100 µM
same,TGI,MOLT-4 leukemia,> 100 µM
same,TGI,OVCAR-5 ovarian,> 100 µM
same,TGI,NCI-H460 lung,> 100 µM
same,TGI,OVCAR-8 ovarian,> 100 µM
same,TGI,HCC-2998 colon,> 100 µM
same,TGI,A498 renal,74.4 µM
same,TGI,NCI/ADR-RES ovarian,47.9 µM
same,TGI,HOP-62 NSCLC,> 100 µM
same,TGI,CCRF-CEM leukemia,71.5 µM
same,TGI,786-0 renal,> 100 µM
same,TGI,DU-145 prostate,> 100 µM
same,TGI,SW-620 colon,> 100 µM
same,TGI,COLO 205 colon,41.2 µM
same,TGI,RXF 393 renal,58.4 µM
same,TGI,HOP-92 NSCLC,> 100 µM
same,TGI,A549 NSCLC,32.9 µM
same,TGI,SR leukemia,> 100 µM
same,TGI,SF-268 CNS,> 100 µM
same,TGI,KM12 colon,41.9 µM
same,TGI,T-47D breast,56.2 µM
same,TGI,HT29 colon,> 100 µM
same,TGI,MCF7 breast,61 µM
same,TGI,EKVX NSCLC,> 100 µM
same,TGI,UO-31 renal,53.2 µM
same,TGI,UACC-257 melanoma,> 100 µM
same,TGI,OVCAR-3 ovarian,> 100 µM
same,TGI,ACHN renal,68.6 µM
same,TGI,SNB-75 CNS,76.7 µM
same,TGI,SF-295 CNS,> 100 µM
same,TGI,HCT-15 colon,60.1 µM
same,TGI,MDA-N,> 100 µM
same,TGI,M14 melanoma,58.8 µM
N#Cc1c(=O)c2ccccc2n2ccccc12,TGI,HCT-116 colon,> 100 µM
same,TGI,CAKI-1 renal,> 100 µM
same,TGI,SK-MEL-2 melanoma,90.8 µM
same,TGI,NCI-H522 lung,> 100 µM
same,TGI,SK-MEL-28 melanoma,> 100 µM
same,TGI,K-562 leukemia,> 100 µM
same,TGI,UACC-62 melanoma,> 100 µM
same,TGI,SK-MEL-5 melanoma,> 100 µM
same,TGI,HS 578T breast,> 100 µM
same,TGI,NCI-H226 lung,> 100 µM
same,TGI,SN12C renal,> 100 µM
same,TGI,NCI-H23 lung,> 100 µM
same,TGI,PC-3 prostate,> 100 µM
same,TGI,TK-10 renal,> 100 µM
same,TGI,MDA-MB-435,> 100 µM
same,TGI,RPMI-8226 leukemia,> 100 µM
same,TGI,IGROV1 ovarian,> 100 µM
same,TGI,NCI-H460 lung,> 100 µM
same,TGI,OVCAR-8 ovarian,> 100 µM
same,TGI,HCC-2998 colon,> 100 µM
same,TGI,A498 renal,> 100 µM
same,TGI,NCI/ADR-RES ovarian,> 100 µM
same,TGI,HL-60(TB) leukemia,> 100 µM
same,TGI,LOX IMVI melanoma,> 100 µM
same,TGI,CCRF-CEM leukemia,> 100 µM
same,TGI,786-0 renal,> 100 µM
same,TGI,DU-145 prostate,> 100 µM
same,TGI,SW-620 colon,> 100 µM
same,TGI,COLO 205 colon,> 100 µM
same,TGI,HOP-92 NSCLC,> 100 µM
same,TGI,A549 NSCLC,> 100 µM
same,TGI,SNB-19 CNS,> 100 µM
same,TGI,SR leukemia,> 100 µM
same,TGI,SF-268 CNS,> 100 µM
same,TGI,KM12 colon,> 100 µM
same,TGI,T-47D breast,> 100 µM
same,TGI,HT29 colon,> 100 µM
same,TGI,UO-31 renal,> 100 µM
same,TGI,UACC-257 melanoma,> 100 µM
same,TGI,ACHN renal,> 100 µM
same,TGI,SNB-75 CNS,> 100 µM
same,TGI,U251 CNS,> 100 µM
same,TGI,HCT-15 colon,> 100 µM
same,TGI,MDA-N,> 100 µM
same,TGI,OVCAR-4 ovarian,> 100 µM
same,TGI,MALME-3M melanoma,> 100 µM
same,TGI,MDA-MB-231 breast,> 100 µM
O=C(c1ccccc1)N1C(=O)N(c2ccccc2)C(=Nc2ccccc2)C1=Nc1ccccc1,TGI,SF-539 CNS,> 100 µM
same,TGI,HCT-116 colon,> 100 µM
same,TGI,CAKI-1 renal,> 100 µM
same,TGI,SK-MEL-2 melanoma,> 100 µM
same,TGI,NCI-H522 lung,> 100 µM
same,TGI,SK-MEL-28 melanoma,> 100 µM
same,TGI,K-562 leukemia,> 100 µM
same,TGI,UACC-62 melanoma,31.8 µM
same,TGI,SK-MEL-5 melanoma,> 100 µM
same,TGI,HS 578T breast,> 100 µM
same,TGI,SK-OV-3 ovarian,> 100 µM
same,TGI,NCI-H226 lung,> 100 µM
same,TGI,SN12C renal,> 100 µM
same,TGI,NCI-H23 lung,> 100 µM
same,TGI,PC-3 prostate,> 100 µM
same,TGI,TK-10 renal,> 100 µM
same,TGI,MDA-MB-435,> 100 µM
same,TGI,RPMI-8226 leukemia,> 100 µM
same,TGI,MOLT-4 leukemia,> 100 µM
same,TGI,OVCAR-5 ovarian,> 100 µM
same,TGI,IGROV1 ovarian,> 100 µM
same,TGI,NCI-H460 lung,> 100 µM
same,TGI,OVCAR-8 ovarian,> 100 µM
same,TGI,HCC-2998 colon,> 100 µM
same,TGI,A498 renal,> 100 µM
same,TGI,NCI/ADR-RES ovarian,> 100 µM
same,TGI,HL-60(TB) leukemia,> 100 µM
same,TGI,LOX IMVI melanoma,> 100 µM
same,TGI,HOP-62 NSCLC,> 100 µM
same,TGI,CCRF-CEM leukemia,> 100 µM
same,TGI,786-0 renal,> 100 µM
same,TGI,DU-145 prostate,> 100 µM
same,TGI,SW-620 colon,> 100 µM
same,TGI,COLO 205 colon,> 100 µM
same,TGI,RXF 393 renal,> 100 µM
same,TGI,HOP-92 NSCLC,> 100 µM
same,TGI,A549 NSCLC,> 100 µM
same,TGI,SNB-19 CNS,> 100 µM
same,TGI,SR leukemia,> 100 µM
same,TGI,SF-268 CNS,> 100 µM
same,TGI,KM12 colon,> 100 µM
same,TGI,T-47D breast,> 100 µM
same,TGI,HT29 colon,> 100 µM
same,TGI,EKVX NSCLC,> 100 µM
same,TGI,UO-31 renal,> 100 µM
same,TGI,UACC-257 melanoma,> 100 µM
same,TGI,ACHN renal,> 100 µM
same,TGI,SNB-75 CNS,> 100 µM
same,TGI,U251 CNS,> 100 µM
same,TGI,SF-295 CNS,> 100 µM
same,TGI,HCT-15 colon,> 100 µM
same,TGI,MDA-N,> 100 µM
same,TGI,OVCAR-4 ovarian,> 100 µM
same,TGI,MALME-3M melanoma,> 100 µM
same,TGI,MDA-MB-231 breast,> 100 µM
